# Laboratory results as given in patent US20220315616A1, “MANGANESE CHELATE ISOMERS” (GE Healthcare AS, priority 2019, published 2022).
# Assays:
# [1] = Dissociation of manganese from the chelate in human serum (SEC with ICP-MS); format: in vitro ADME; settings: for Percent dechelation in human serum: 37° C., protein bound manganese
# Description: (§1) Stability of Mn Chelate-5 stereoisomers in human serum was assessed in vitro by monitoring transfer of Mn from the chelate to blood proteins by a method employing size exclusion chromatography combined with online detection of manganese containing species by ICP-MS.
# The following method was used for measurement of dissociation of manganese from the manganese chelate in human serum.
# To human serum obtained from clotted blood (Sigma-Aldrich, 1900 μL) was added an aqueous solution of the manganese chelate (2 mM, 100 μL). The mixture was incubated at 37° C. At specific time points aliquots of 200 μL of test sample were mixed with saline (400 μL) and analysed by size exclusion chromatography (metal-free HPLC equipped with a column with separation range 5000-500000 Dalton) combined with online detection of manganese containing species by ICP-SF-MS. Percent dechelation was measured as area percent of the high molecular weight (protein) fraction. At regular intervals EDTA solution was run through the system to ensure low levels of background metal ions. Human serum was incubated with Mn(II)acetate and injected to identify the position of Mn-binding components in the high molecular weight region of the chromatogram.
# Four different stereoisomers of Mn Chelate-5 (RR, SS, SR and RS) were analysed in this assay.
# [2] = Trans-metalation with Zn (HPLC, % Mn chelate remaining); format: physicochemical; settings: 2 mM chelate, 200 mM ZnCl2 in 15 mM ammonium formate, pH=4, 40° C.
# Description: as §1
# Method for assessing trans-metalation with Zn. Mn chelates were dissolved in aqueous solutions containing 200 mM ZnCl2 and 15 mM ammonium formate at either pH=4 to give a Mn chelate concentration of approx. 2 mM. The resulting solutions were incubated at 40° C. with mixing and aliquots were periodically analyzed by HPLC. The percent Mn containing chelate remaining in the solution was measured by integration at 265 nm.
# [3] = Mn-54 biodistribution study in rats; format: in vivo, Sprague-Dawley rats; settings: rat, 7 d post injection; for % ID ± standard deviation, Brain: 0.62 mmol Mn/kg with ~30 μCi 54Mn labeled chelate, n = 4
# Description: In vivo stability of the different isomer pools was assessed via a ^54Mn radioactive biodistribution as Mn released in vivo is known to be retained in brain, bone and liver. The amount of Mn released in vivo was assessed for Mn Chelate-5 synthesized without stereochemical control, a 1:1 mix of (R,R)-Mn Chelate-5 and (S,S)-Mn Chelate 5 isomers, and (R,S)-Mn Chelate-5 isomer pool B using ^54Mn labeled material added to non-radiolabeled material. […] Rats were dosed with 0.62 mmol Mn Chelate-5/kg containing ˜30 μCi ^54Mn Chelate-5. The animals were sacrificed at 7 d post injection, organs of interest were collected, and the ^54Mn remaining in the organs was measured using a gamma counter. FIG. 4 is a plot showing % ID (injected dose)/organ 7 d post injection of a 0.62 mmol Mn Chelate-5/kg dose containing ˜[…] ^54Mn Chelate-5. Bars containing hashed lines represent % ID/organ at or below the limit of detection for the study. The results of statistical comparison of the % ID for each organ are summarized as p-values using either a one-way ANOVA Games-Howell comparison or a 2-way t-test as appropriate are shown for each organ.
# Method for preparation of Mn-54 labeled chelate for biodistribution studies. To a 3 mL glass vial fitted with a magnetic stir bar was added the manganese containing chelate (1 mg) and 1.0 M ammonium formate, pH=4 (0.5 mL). ^54MnCl2 in 1.0 M HCl (˜500 μCi) was then added and the resulting solution was heated at 40° C. for 16 h. The resulting solution was purified via preparative HPLC to remove unchelated Mn. The radioactive fraction was collected and evaporated to dryness in vacuo. The radioactive residue was taken up in water containing non-radioactive Mn chelate (0.310 M) such that ˜30 μCi of radioactivity was formulated in a dose of 0.620 mmol Mn/kg with an injection volume of 2 mL/kg.
# General method for Mn-54 biodistribution studies. […] 7 days post injection, the animals were sacrificed by CO2 immersion and organs and tissues of interest were removed and assayed for radioactivity using a Wizard 2480 gamma counter (Table 2).
# [4] = r1 and r2 relaxivities (Brüker mq60 relaxometer); format: physicochemical; settings: in human serum at 60 MHz and 37° C.
# Excerpt: General method for measurement of r1 and r2 relaxivities. […] […] Linear fits (R^2>0.99 in all cases) of 1/T1 or 1/T2 as a function of Mn concentration gave r1 or r2 values respectively.
Compound,Percent dechelation in human serum ([1]; incubation time 3 h),Percent dechelation in human serum ([1]; incubation time 24 h),Percent dechelation in human serum ([1]; incubation time 49 h),Rate of transmetallation with Zn (among Mn Chelate-5 stereoisomers) [2],"Stability in human serum (percent dechelation curves, comparison of isomers) ([1]; 2 days total incubation at 37 °C)","Mn remaining in vivo in brain and bone vs 1:1 (S,S)/(R,R) mixture or Mn Chelate-5 without stereochemical control [3]","% ID ± standard deviation, Brain [3]",r1 relaxivity [4]
"CN1CCN2Cc3cccc(n3)CN(CC1)[C@@H](CCC(=O)NC[C@H](O)[C@@H](O)[C@H](O)[C@H](O)CO)C(=O)[O][Mn][O]C(=O)[C@@H]2CCC(=O)NC[C@H](O)[C@@H](O)[C@H](O)[C@H](O)CO [(S,S)-Mn Chelate-5]",0.3%,1.6%,2.4%,,,,,
"CN1CCN2Cc3cccc(n3)CN(CC1)[C@@H](CCC(=O)NC[C@H](O)[C@@H](O)[C@H](O)[C@H](O)CO)C(=O)[O][Mn][O]C(=O)[C@H]2CCC(=O)NC[C@H](O)[C@@H](O)[C@H](O)[C@H](O)CO [(R,S)-Mn Chelate-5]",0.04%,0.11%,0.16%,significantly slower rate of transmetallation,most stable,significantly less Mn remaining in vivo,0.002 ± 0.0004% ID,6.0 mM⁻¹ s⁻¹
"CN1CCN2Cc3cccc(n3)CN(CC1)[C@H](CCC(=O)NC[C@H](O)[C@@H](O)[C@H](O)[C@H](O)CO)C(=O)[O][Mn][O]C(=O)[C@H]2CCC(=O)NC[C@H](O)[C@@H](O)[C@H](O)[C@H](O)CO [(R,R)-Mn Chelate-5]",0.6%,2.7%,3.6%,,,,,
CN1CCN2Cc3cccc(n3)CN(CC1)C(CCC(=O)NC[C@H](O)[C@@H](O)[C@H](O)[C@H](O)CO)C(=O)[O][Mn][O]C(=O)C2CCC(=O)NC[C@H](O)[C@@H](O)[C@H](O)[C@H](O)CO (stereo partly shown) [Mn Chelate-5],,,,,,,0.005 ± 0.0004% ID,6.0 mM⁻¹ s⁻¹
